Laboratory results taken from patent US12509459B2, “Inhibitors of NLRP3 inflammasome” (BioAge Labs, Inc., priority 2024, dated 2025).
pIC50: −log10 of the molar value.

Target: NLRP3 (Homo sapiens, UniProt Q96P20)
Test: THP-1 cell-based NLRP3 activation assay
Parameters: endogenous in cells; host or cells: THP-1 cells (PMA-differentiated, LPS-primed, nigericin-stimulated)
Conditions: PMA-differentiated THP-1 cells, LPS 100 ng/mL then 10 μM nigericin
Experimental: THP-1 cells are cultured in complete media (CM) until they reach logarithmic growth and achieve a viability >90%. CM is composed of RPMI-1640 (+Glutamax)/10% fetal bovine serum/55 μM β-mercaptoethanol/pen/strep. Cells are spun down and resuspended to 1,000,000 cells/mL in CM containing either 20 nM or 500 nM PMA. 150,000 cells (150 μL) are then added to each well of a 96-well TC plate and incubated for either 24 hr or 3 hr, respectively, in a standard cell culture incubator (37° C.; 5% CO2). After this incubation, the plate is tilted and media carefully removed. 200 μL of CM containing 100 ng/mL LPS is then added to the wells and the cells incubated an additional 3 hrs. The media is again removed and replaced with Opti-Mem medium containing pre-determined dilutions of test compounds in replicate wells. After a 30 min incubation, 10 μM nigericin (final concentration) in Opti-Mem medium with the corresponding concentration of compound is added to the wells for an additional 1 hr. Positive control wells contain 10 μM nigericin in Opti-Mem in the absence of test compound, while negative control wells contain Opti-Mem only. […] Once supernatants are removed, the relative viability of adherent cells in the 96-well TC plate are determined using a CellTiter-Glo® luminescent cell viability assay (Promega).

NLRP3, sequence (Q96P20 whole entry): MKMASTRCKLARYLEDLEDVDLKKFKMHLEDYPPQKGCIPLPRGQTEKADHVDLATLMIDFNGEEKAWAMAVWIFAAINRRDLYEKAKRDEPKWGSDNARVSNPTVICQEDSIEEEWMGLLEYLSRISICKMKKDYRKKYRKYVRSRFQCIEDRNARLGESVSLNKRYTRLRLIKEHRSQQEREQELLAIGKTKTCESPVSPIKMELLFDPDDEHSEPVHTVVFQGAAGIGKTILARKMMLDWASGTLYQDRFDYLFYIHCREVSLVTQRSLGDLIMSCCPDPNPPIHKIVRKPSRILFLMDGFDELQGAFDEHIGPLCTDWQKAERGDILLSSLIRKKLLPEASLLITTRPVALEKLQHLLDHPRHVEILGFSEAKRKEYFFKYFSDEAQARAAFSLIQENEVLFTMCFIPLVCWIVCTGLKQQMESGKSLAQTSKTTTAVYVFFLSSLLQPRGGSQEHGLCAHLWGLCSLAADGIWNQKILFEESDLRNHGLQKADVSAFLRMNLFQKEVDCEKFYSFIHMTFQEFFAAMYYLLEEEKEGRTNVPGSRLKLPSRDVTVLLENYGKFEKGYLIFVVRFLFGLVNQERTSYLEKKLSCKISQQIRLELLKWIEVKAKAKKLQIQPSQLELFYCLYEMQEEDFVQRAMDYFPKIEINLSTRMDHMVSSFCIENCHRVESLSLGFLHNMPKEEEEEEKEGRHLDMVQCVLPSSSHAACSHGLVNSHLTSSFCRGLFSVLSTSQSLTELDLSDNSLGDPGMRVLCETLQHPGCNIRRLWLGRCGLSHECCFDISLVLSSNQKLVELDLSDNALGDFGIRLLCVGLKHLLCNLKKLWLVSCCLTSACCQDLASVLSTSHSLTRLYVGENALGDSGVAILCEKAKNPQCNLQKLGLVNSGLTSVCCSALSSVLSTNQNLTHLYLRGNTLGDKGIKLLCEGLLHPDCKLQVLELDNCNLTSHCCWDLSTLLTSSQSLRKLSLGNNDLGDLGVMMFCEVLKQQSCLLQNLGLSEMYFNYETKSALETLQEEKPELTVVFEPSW

SMILES	pIC50
CCOc1cc(C(=O)N(C)[C@@H](CN(C)C)c2cncc3cn[nH]c23)ccc1-c1cccc(F)c1 [Compound 122]	6.00 to 6.30
CCOc1cc(C(=O)N(CCO)Cc2cnc(N)c3cn[nH]c23)ccc1-c1cccc(C#N)c1 [Compound 043]	6.30 to 7.00
CCOc1cc(C(=O)N(C)[C@H](c2cncc3cn[nH]c23)C2CNC2)ccc1-c1cccc(C#N)c1 [Compound 142]	4.82 to 6.00
CCOc1cc(C(=O)N(C[C@H](C)O)[C@H](C)c2cnc(C)c3cn[nH]c23)ccc1-c1cccc(F)c1 [Compound 059]	4.82 to 6.00
CCOc1cc(C(=O)N(C)[C@H](CN(C)C)c2cccc3cn[nH]c23)ccc1-c1cccc(F)c1 [Compound 256]	6.30 to 7.00
CCOc1cc(C(=O)N(C)[C@H](CCC2CN(C)C2)c2cccc3cn[nH]c23)ccc1-c1cccc(F)c1 [Compound 297]	6.30 to 7.00
CCOc1cc(C(=O)N(C)[C@H](CCN(C)CCO)c2cncc3cn[nH]c23)ccc1-c1cccc(F)c1 [Compound 262]	> 7.00
CCOc1cc(C(=O)N(CCO)Cc2cnc(N)c3cn[nH]c23)ccc1-c1cccc(F)c1 [Compound 047]	6.30 to 7.00
CCOc1cc(C(=O)N(C)[C@H](CO)c2cncc3cn[nH]c23)ccc1-c1cccc(Cl)c1 [Compound 004]	> 7.00
CCOc1cc(C(=O)N(C)[C@@H](c2cncc3cn[nH]c23)C2CN(C)C2)ccc1-c1cccc(F)c1 [Compound 079]	> 7.00
CCOc1cc(C(=O)N(C[C@@H](C)O)[C@@H](C)c2cnc(C)c3cn[nH]c23)ccc1-c1cccc(F)c1 [Compound 060]	< 4.82
CCOc1cc(C(=O)N(CCNC)Cc2cncc3cn[nH]c23)ccc1-c1cccc(F)c1 [Compound 116]	> 7.00
CCOc1cc(C(=O)N(C)[C@H](CCN(C)C)c2cnc(C)c3cn[nH]c23)ccc1-c1ccccc1 [Compound 074]	> 7.00
CCOc1cc(C(=O)N(Cc2cncc3cn[nH]c23)[C@H]2CC[C@H]2N)ccc1-c1cccc(Cl)c1 [Compound 295]	6.30 to 7.00
CCOc1cc(C(=O)N(C)[C@H](CCNC)c2cncc3cn[nH]c23)ccc1-c1cccc(C#N)c1 [Compound 232]	> 7.00
CCOc1cc(C(=O)N(C)[C@H](CO)c2cnc(C)c3cn[nH]c23)ccc1-c1cccc(Cl)c1 [Compound 019]	> 7.00
CCOc1cc(C(=O)N(C)[C@@H](CN(C)C)c2cncc3cn[nH]c23)ccc1C(C)C [Compound 209]	> 7.00

SMILES	pIC50
CCOc1cc(C(=O)N(Cc2cncc3cn[nH]c23)[C@H]2CC[C@@H]2N)ccc1-c1cccc(Cl)c1 [Compound 287]	6.00 to 6.30
CCOc1cc(C(=O)N(Cc2ccc(C)c3cn[nH]c23)[C@H]2C[C@@H](N(C)C)C2)ccc1-c1cccc(Cl)c1 [Compound 285]	> 7.00
CCOc1cc(C(=O)N(C)[C@@H](CN2CCCC2)c2cncc3cn[nH]c23)ccc1-c1cccc(F)c1 [Compound 130]	> 7.00
CCOc1cc(C(=O)N(Cc2cncc3cn[nH]c23)C2CC(NC)C2)ccc1-c1cccc(F)c1 (centres unmarked) [Compound 235]	6.30 to 7.00
CCOc1cc(C(=O)N(C)[C@H](c2cncc3cn[nH]c23)C2CN(CC)C2)ccc1-c1ccccc1 [Compound 134]	4.82 to 6.00
CCOc1cc(C(=O)N(C)[C@H](CCN(C)C)c2cncc3cn[nH]c23)ccc1-c1cc(Cl)cc(Cl)c1 [Compound 090]	> 7.00
CCOc1cc(C(=O)N(C)[C@@H](c2cnc(C)c3cn[nH]c23)[C@@H](C)O)ccc1-c1cccc(Cl)c1 [Compound 024]	> 7.00
CCOc1cc(C(=O)N(C)[C@H](CC[N+]([O-])(CC)CC)c2cccc3cn[nH]c23)ccc1-c1cccc(F)c1 [Compound 216]	> 7.00
CCOc1cc(CN(CCN(CC)CC)Cc2cncc3cn[nH]c23)ccc1-c1cccc(F)c1 [Compound 120]	> 7.00
CCOc1cc(C(=O)N(C)[C@H](CCNCCCF)c2cncc3cn[nH]c23)ccc1-c1cccc(Cl)c1 [Compound 139]	> 7.00
CCOc1cc(C(=O)N(C)[C@H](CC[N+]([O-])(CC)CC)c2cccc3cn[nH]c23)ccc1-c1cccc(Cl)c1 [Compound 207]	> 7.00
CCOc1cc(C(=O)N(C)[C@H](CO)c2cnc(CO)c3cn[nH]c23)ccc1-c1cccc(Cl)c1 [Compound 036]	> 7.00
CCOc1cc(C(=O)N(C)[C@H](CCN(C)C)c2cncc3cn[nH]c23)ccc1C(C)CC (some centres unmarked) [Compound 161]	> 7.00
CCOc1cc(C(=O)N(C)[C@H](c2cncc3cn[nH]c23)C2CN(C)C2)ccc1-c1cccc(Cl)c1 [Compound 148]	> 7.00
CCc1ncc([C@@H](CO)N(C)C(=O)c2ccc(-c3cc(F)cc(F)c3)c(OC3CC3)c2)c2[nH]ncc12 [Compound 035]	> 7.00
CCOc1cc(C(=O)N(C)[C@@H](c2cncc3cn[nH]c23)[C@@H]2CCN(C)C2)ccc1-c1ccccc1 [Compound 160]	> 7.00

Now from value to compound:

pIC50	SMILES
> 7.00	CCOc1cc(C(=O)N(C)[C@H](CCN2CCC2)c2cncc3cn[nH]c23)ccc1-c1cccc(F)c1 [Compound 077]
> 7.00	CCOc1cc(C(=O)N(Cc2cnc(C)c3cn[nH]c23)[C@H]2CC[C@@H]2O)ccc1-c1cccc(F)c1 [Compound 056]
> 7.00	CCOc1cc(C(=O)N(CCO)Cc2cnc(NC)c3cn[nH]c23)ccc1-c1cccc(F)c1 [Compound 048]
> 7.00	CCOc1cc(C(=O)N(C)[C@H](CCN(C)CC)c2cccc3cn[nH]c23)ccc1-c1cccc(F)c1 [Compound 214]
> 7.00	CCOc1cc(C(=O)N(C)[C@H](COC)c2cncc3cn[nH]c23)ccc1-c1cccc(Cl)c1 [Compound 014]
> 7.00	CCOc1cc(C(=O)N(C)[C@H](CCNC)c2cccc3cn[nH]c23)ccc1-c1cccc(Cl)c1 [Compound 233]
> 7.00	CCOc1cc(C(=O)N(Cc2cncc3cn[nH]c23)[C@H]2C[C@@H](CN(C)C)C2)ccc1-c1cccc(F)c1 [Compound 249]
> 7.00	CCOc1cc(C(=O)N(Cc2cncc3cn[nH]c23)[C@H]2C[C@@H](N(C)C)C2)ccc1-c1cccc(Cl)c1 [Compound 253]
> 7.00	CCOc1cc(C(=O)N(C)[C@@H](CN2CCCC2)c2cccc3cn[nH]c23)ccc1-c1cccc(F)c1 [Compound 223]
> 7.00	CCOc1cc(C(=O)N(C)[C@@H](c2cncc3cn[nH]c23)C2CN(C)C2)ccc1-c1cccc(C#N)c1 [Compound 143]
> 7.00	CCOc1cc(C(=O)N(CCN2CCC(F)C2)Cc2cncc3cn[nH]c23)ccc1-c1cccc(F)c1 (centres unmarked) [Compound 109]
> 7.00	CCOc1cc(C(=O)N(Cc2cncc3cn[nH]c23)[C@H]2C[C@@H](NC)C2)ccc1-c1cccc(C#N)c1 [Compound 291]
> 7.00	CCOc1cc(C(=O)N(Cc2cccc3cn[nH]c23)[C@H]2C[C@@H](N(C)C)C2)ccc1-c1cccc(C#N)c1 [Compound 293]
> 7.00	CCOc1cc(C(=O)N(C)[C@H](CO)c2cncc3cn[nH]c23)ccc1-c1cc(F)cc(F)c1 [Compound 002]
> 7.00	Cc1ncc([C@@H](CCO)N(C)C(=O)c2ccc(-c3cccc(Cl)c3)c(OC3CC3)c2)c2[nH]ncc12 [Compound 026]
> 7.00	CCOc1cc(C(=O)N(C)[C@@H](c2cncc3cn[nH]c23)[C@@H]2CCN(C)C2)ccc1-c1cccc(F)c1 [Compound 081]
> 7.00	CCOc1cc(C(=O)N(C)[C@@H](CN(C)C)c2cccc3cn[nH]c23)ccc1-c1cccc(F)c1 [Compound 257]
